Source: patent publication US20260216180A1, “QUINOLINE DERIVATIVE COMPOUNDS OR PHARMACEUTICALLY ACCEPTABLE SALT THEREOF, PREPARATION METHOD THEREFOR AND USE THEREOF” (JIANGSU CAREPHAR PHARMACEUTICAL CO.,LTD., priority 2023, published 2026)
Marks after values point to notes of the source that are not given here.

What was measured:
CYP2C9 = target: T1, CYP2C9 (Homo sapiens, UniProt P11712); test: CYP enzyme inhibition, human liver microsomes, CYP2C9; type: in vitro ADME; conditions: probe substrate Diclofenac, read-out: IC50 CYP 2C9
T1 construct: Commercially available mixed human liver microsomes were used; from tissue; host or cells: pooled human liver microsomes
Procedure: (§1) Commercially available mixed human liver microsomes were used, with the liver microsome concentrations of diclofenac, dextromethorphan, and midazolam being 0.1 mg/mL; and the liver microsome concentrations of phenacetin, bupropion, amodiaquine, mephenytoin, and testosterone being 0.2 mg/mL. Probe substrate, specific inhibitor and test compound (ABX464, compound 18) were diluted to the corresponding concentration of working solution for use. A mixed solution containing liver microsomes, MgCl2, substrate, […] inhibitor, and the test compound was prepared. After the incubation, 600 μL of ice-cold ACN working solution containing IS was added to terminate the reaction, and the mixture was centrifuged and used for LC-MS/MS detection. [table] At different concentrations of the test compound or positive inhibitor, the percentage of remaining activity is determined by the ratio of the amount of characteristic metabolites of the probe substrate generated to the corresponding amount generated in the absence of the test compound or positive inhibitor. […]

miR-124 = test: Regulation of miR-124 expression in a PBMC in vitro model (qPCR); type: cell-based; conditions: 5 μM test compound, 24 h, human PBMC stimulated with PHA-L and IL-2; miR-191 internal reference; read-out: Relative expression of miR-124, fold change compared with DMSO-treated cells
Procedure: Pharmacological Activity Test: Regulation of miR-124 Expression by the Quinoline Derivatives in a PBMC In Vitro Model
• a. human PBMC cells • b. PHA-L • c. IL-2 • d. mirVana™ miRNA Extraction kit • e. TaqMan Advanced miRNA cDNA Synthesis Kit • f. TaqMan Fast Gene Expression Master Mix • g. TaqMan Advanced miRNA Assay (mir191) • h. TaqMan Advanced miRNA Assay (mir124)
Human PBMC cells were resuscitated. The cell suspension was transferred to a 75 cm^2 culture flask containing 13 mL of culture medium. The cells were cultured overnight in a 37° C., 5% CO2 incubator. The cell suspension was then collected in a conical flask, centrifuged at 1200 rpm for 5 minutes, and the supernatant was discarded. The cells were resuspended in 1 mL of fresh culture medium, and then the cell clumps were gently blown apart and inoculated into a 6-well plate at a density of 4*10^6 cells/mL. 5 μg/mL PHA-L and 10 ng/mL IL-2 were added to each well. The cells were incubated in the incubator for 48 hours. 5 μM of the test compound was added to each well of a 6-well plate, and 0.1% DMSO was added to the blank control wells, and the plate was incubated at 37° C. for 24 h. Cells were collected, Total RNA was isolated and extracted according to the procedure of the mirVana™ miRNA Extraction Kit, and cDNA was prepared according to the procedure of the TaqMan Advanced miRNA cDNA Synthesis Kit. MiR-191 was used as the internal reference gene for qPCR test.
That is, RNA sample→poly (A) tailing reaction→adapter reaction→reverse transcription (RT) reaction→miR-amplification reaction→qPCR test.
The qPCR procedure includes: 50° C. 2 min; 95° C. 20 s; 95° C. 1 s, a 60° C. 20 s, 40 cycles.
The relative gene expression was calculated using the following formula: ΔCt=Ct (miR-124)−Ct (miR-191)
Relative miRNA expression=2^−ΔCt.

CYP2C8 = target: T2, CYP2C8 (Homo sapiens, UniProt P10632); test: CYP enzyme inhibition, human liver microsomes, CYP2C8; type: in vitro ADME; conditions: probe substrate Amodiaquine, read-out: IC50 CYP 2C8
T2 construct: Commercially available mixed human liver microsomes were used; from tissue; host or cells: pooled human liver microsomes
T2 sequence (P10632 1-490): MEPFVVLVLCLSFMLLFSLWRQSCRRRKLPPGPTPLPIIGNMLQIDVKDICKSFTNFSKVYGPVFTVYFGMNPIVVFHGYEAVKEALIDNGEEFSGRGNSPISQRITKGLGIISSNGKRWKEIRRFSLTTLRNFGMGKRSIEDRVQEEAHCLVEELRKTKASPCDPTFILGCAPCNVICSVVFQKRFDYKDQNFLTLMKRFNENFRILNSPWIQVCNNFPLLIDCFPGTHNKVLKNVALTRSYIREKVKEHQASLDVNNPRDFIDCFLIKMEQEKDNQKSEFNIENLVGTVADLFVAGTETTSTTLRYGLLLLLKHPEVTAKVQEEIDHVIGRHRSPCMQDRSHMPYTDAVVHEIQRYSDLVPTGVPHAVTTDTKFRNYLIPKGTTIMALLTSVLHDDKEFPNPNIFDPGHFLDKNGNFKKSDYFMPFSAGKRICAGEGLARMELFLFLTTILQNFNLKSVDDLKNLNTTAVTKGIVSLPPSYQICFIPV
Procedure: as §1

DSS colitis model = test: In vivo efficacy in 3% DSS colitis model in mice; parameters: species or system male C57BL/6 mice; conditions: for Colon length / Colon weight / Pathological score: D0-D11, DSS colitis mice; for Colon length / Colon weight: D11; for Pathological score: colon HE staining
Procedure: In this experiment, male C57BL/6 mice (from Jiangsu Jicui Pharmaceutical Biotechnology Co., Ltd.) were used to establish a colitis model by freely drinking 3% DSS water. After the adaptive feeding of mice, they were randomly divided into 4 groups according to their body weight: normal control group, DSS enteritis model group, compound 18-10 mg/kg group, and ABX464-40 mg/kg group. The day of grouping was recorded as DO. On D0-D8, mice in G2-G4 groups were given 3% DSS drinking water, which was changed every 3 days. On D9-D11, mice in G2-G4 groups were given normal drinking water. The corresponding solvents and drugs were intragastrically administered for 11 consecutive days from D0 to D11. From D0 to D11, mice in the G1 group received normal diet and water, and were given blank-vehicle for 11 consecutive days. The mice were observed daily from D0 to D11, their weights were recorded, diarrhea scores and bloody stool scores were measured daily, and the DAI values were calculated. On D11, mice were euthanized, colon tissue was obtained, colon length was measured, colon weight was weighed, and photos were taken. The colon tissues were subjected to HE staining and pathological analysis. Statistical analysis: Independent sample T test was used. #: P<0.05 compared with the normal control group; ##: P<0.01 compared with the normal control group; ###: P<0.001 compared with the normal control group. *: P<0.05 compared with the model control group; **: P<0.01 compared with the model control group; ***: P<0.001 compared with the model control group.

[1] = 10 mg/kg o.p. QD, listed as compound 18
[2] = 10 mg/kg o.p. QD, DSS colitis mice

T1 sequence (P11712 whole entry): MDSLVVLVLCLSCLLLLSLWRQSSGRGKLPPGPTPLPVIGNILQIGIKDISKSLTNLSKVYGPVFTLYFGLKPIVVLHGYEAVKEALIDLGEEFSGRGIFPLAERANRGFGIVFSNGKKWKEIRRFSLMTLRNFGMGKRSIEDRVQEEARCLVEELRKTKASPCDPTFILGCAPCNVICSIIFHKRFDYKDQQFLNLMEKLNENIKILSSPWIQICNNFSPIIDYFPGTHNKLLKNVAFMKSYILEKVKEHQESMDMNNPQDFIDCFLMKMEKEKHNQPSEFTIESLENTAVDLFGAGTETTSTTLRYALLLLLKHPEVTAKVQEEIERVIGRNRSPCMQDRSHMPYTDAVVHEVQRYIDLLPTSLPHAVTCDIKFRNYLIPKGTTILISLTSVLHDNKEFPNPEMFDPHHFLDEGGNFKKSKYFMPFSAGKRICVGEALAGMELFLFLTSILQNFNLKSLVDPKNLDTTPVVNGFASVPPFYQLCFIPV

IC50 (CYP2C9)	IC50 (CYP2C8)	Structure (SMILES)	fold induction at 5 µM (miR-124)	Colon length (DSS colitis model; 10 mg/kg o.p. QD)	Colon weight (DSS colitis model; 10 mg/kg o.p. QD)	Colon length (DSS colitis model; [1])	Colon weight (DSS colitis model; [1])	Pathological score (DSS colitis model; 10 mg/kg o.p. QD)	Pathological score (DSS colitis model; [1])	Body weight of mice compared with DSS enteritis model control group (DSS colitis model; [2])	DAI score compared with DSS enteritis model control group (DSS colitis model; [2])	DAI score compared with DSS enteritis model control group (DSS colitis model; 40 mg/kg o.p. QD, DSS colitis mice)
20.2 µM	40.4 µM	Fc1cc(Cl)c2nc(Nc3ccc(C4(C(F)(F)F)CC4)cc3)ccc2c1 [Compound 18, 8-chloro-6-fluoro-N-(4-(1-(trifluoromethyl)cyclopropyl)phenyl)quinolin-2-amine]	125	6.6*** cm	0.3710** g	significantly increased	significantly increased	4.00	significantly reduced	significantly increased	significantly reduced	
15.1 µM	35.9 µM	FC(F)(F)Oc1ccc(Nc2ccc3cccc(Cl)c3n2)cc1 [ABX464, reference compound]										significantly reduced
